US12172974B2 (Biohaven Pharmaceutical Holding Company Ltd., priority 2012, dated 2024)

Experiments:
Format in all cases: in vitro ADME
[1] = Metabolic stability in pooled mouse liver microsomes; settings: mouse liver microsomes 0.5 mg/mL, 1 uM, 37° C., NADPH
Experimental: (§1) Metabolic Stability: In vitro metabolic stability was determined in pooled mouse or human liver microsomes (BD Gentest) at a protein concentration of 0.5 mg/mL in reaction buffer (100 mM KH2PO4, pH 7.4 and 12 mM MgCl2). Each drug candidate was added to a final concentration of 1 uM. This mixture was pre-warmed to 37° C. for 10 minutes prior to starting the reaction with the addition of β-Nicotinamide adenine dinucleotide 2′-phosphate reduced (NADPH) to a final concentration of 1 mM. A parallel incubation lacking NADPH served as the control. After incubation for 30 min at 37° C., the reactions were quenched by the addition of acetonitrile containing 0.1% formic acid and internal standard, vortex mixed for 2 minutes and centrifuged at 4000 rpm for 10 minutes to pellet the precipitated protein. The resulting supernatant containing the drug candidate and its potential metabolites was diluted 5-fold with water containing 0.1% formic acid and submitted to LC-MS/MS analysis. […]
(§2) LC-MS/MS Analysis: An aliquot from each incubation was analyzed by LC-MS/MS with SRM detection in the positive ionization mode using an ABSciex API 5500 QTrap Mass Spectrometer interfaced via the ABSciex Turbo V IonSpray source (ESI) to an Eksigent ExpressHT LC system. […] A fast gradient, from 15 to 85% organic in 2.5 minutes, with run time of 5.0 minutes, and flow rate of 50 ul/min was utilized. Peak areas were integrated using MultiQuant v2.0 software from ABSciex.

[2] = Metabolic stability in pooled human liver microsomes; settings: human liver microsomes 0.5 mg/mL, 1 uM, 37° C., NADPH
Experimental: as §1, §2

[3] = Plasma stability in fresh mouse plasma; settings: 1 uM, 37° C.
Experimental: (§3) Plasma Stability: Assessment of plasma stability was carried out by individual incubations of drug candidates in fresh mouse or human control plasma at a concentration of 1 uM for 1 hour at 37° C. After which, the samples were de-proteinized by addition of 2 volumes of acetonitrile containing 0.1% formic acid and internal standard, vortex mixed for 2 minutes and centrifuged at 4000 rpm for 10 minutes to pellet precipitated protein. The resulting supernatant containing the drug candidates was diluted 5-fold with water containing 0.1% formic acid and submitted to LC-MS/MS analysis. All determinations were done in triplicate. […]
as §2

[4] = Plasma stability in fresh human plasma; settings: 1 uM, 37° C.
Experimental: as §3, §2

[5] = Stability in Simulated Gastric Fluid (SGF); settings: 37° C., 0.01 mg/mL
Experimental: (§4) Stability in Simulated Gastric Fluid (SGF) and Simulated Intestinal Fluid (SIF). Procedure from Baudy et. al. (J. Med. Chem. 2009, 52, 771-778) used. The physiological stability of prodrugs was determined by examining the stability of the compound in SGF, and SIF at 37° C. The compounds were prepared in a 9:1 mixture of the appropriate test component (SGF, SIF) and acetonitrile to a final concentration of 0.01 mg/mL. The samples were thoroughly mixed and maintained at 37° C. Each sample was injected consecutively onto an Agilent 1100 system (Luna C18, 3 μm, 50 mm×3 mm; 1 mL/min; mobile phase of 0.1% trifluoroacetic acid in water/0.1% trifluoroacetic acid in acetonitrile) after a 3 h period. The percent remaining of prodrug was calculated by comparing the area of prodrug compound versus riluzole generated. The identities of the parent compounds and conversion products were confirmed by LC/MS.

[6] = Stability in Simulated Intestinal Fluid (SIF); settings: 37° C., 0.01 mg/mL
Experimental: as §4

Metabolic Stability mouse (30 minutes): percent of prodrug metabolized to riluzole [1] | Metabolic Stability human (30 minutes): percent of prodrug metabolized to riluzole [2] | Plasma Stability mouse (1 hour): percent of prodrug metabolized to riluzole [3] | Plasma Stability Human (1 hour): percent of prodrug metabolized to riluzole [4] | SGF (3 hours): percent of prodrug metabolized to riluzole [5] | SIF (3 hours): percent of prodrug metabolized to riluzole [6] | Compound
8% | 7% | 0% | 0% | 0% | 0% | CCOC(=O)Nc1nc2ccc(OC(F)(F)F)cc2s1 [Cpd 13, (6-Trifluoromethoxy-benzothiazol-2-yl)-carbamic acid ethyl ester]
15% | 34% | 0% | 0% | 0% | 0% | CCCOC(=O)Nc1nc2ccc(OC(F)(F)F)cc2s1 [Cpd 14, (6-Trifluoromethoxy-benzothiazol-2-yl)-carbamic acid propyl ester]
53% | 13% | 9% | 0% | 0% | 0% | CCCCOC(=O)Nc1nc2ccc(OC(F)(F)F)cc2s1 [Cpd 15, (6-Trifluoromethoxy-benzothiazol-2-yl)-carbamic acid butyl ester]
23% | 14% | 0% | 0% | 5% | 0% | CC(C)COC(=O)Nc1nc2ccc(OC(F)(F)F)cc2s1 [Cpd 16, (6-Trifluoromethoxy-benzothiazol-2-yl)-carbamic acid isobutyl ester]
– | – | – | – | 0% | – | CCCCCCOC(=O)Nc1nc2ccc(OC(F)(F)F)cc2s1 [Cpd 17, (6-Trifluoromethoxy-benzothiazol-2-yl)-carbamic acid hexyl ester]
13% | 10% | 3% | 0% | 0% | 0% | CN(C)CCOC(=O)Nc1nc2ccc(OC(F)(F)F)cc2s1 [Cpd 18, (6-Trifluoromethoxy-benzothiazol-2-yl)-carbamic acid 2-dimethylamino-ethyl ester]
– | – | – | – | 0% | 60% | O=C(CCC(=O)Nc1nc2ccc(OC(F)(F)F)cc2s1)NCCN1CCOCC1 [Cpd 24, N-(2-Morpholin-4-yl-ethyl)-N′-(6-trifluoromethoxy-benzothiazol-2-yl)-succinamide]
– | – | – | – | 0% | 50% | NCC1(CC(=O)Nc2nc3ccc(OC(F)(F)F)cc3s2)CCCCC1 [Cpd 29, 2-(1-Aminomethyl-cyclohexyl)-N-(6-trifluoromethoxy-benzothiazol-2-yl)-acetamide]

Second part, the compound before the results:

Compound | Metabolic Stability mouse (30 minutes): percent of prodrug metabolized to riluzole [1] | Metabolic Stability human (30 minutes): percent of prodrug metabolized to riluzole [2] | Plasma Stability mouse (1 hour): percent of prodrug metabolized to riluzole [3] | Plasma Stability Human (1 hour): percent of prodrug metabolized to riluzole [4] | SGF (3 hours): percent of prodrug metabolized to riluzole [5] | SIF (3 hours): percent of prodrug metabolized to riluzole [6]
NCC(=O)Nc1nc2ccc(OC(F)(F)F)cc2s1 [Cpd 1, 2-Amino-N-(6-trifluoromethoxy-benzothiazol-2-yl)-acetamide] | 4% | 7% | 11% | 3% | – | –
C[C@@H](N)C(=O)Nc1nc2ccc(OC(F)(F)F)cc2s1 [Cpd 2, (R)-2-Amino-N-(6-trifluoromethoxy-benzothiazol-2-yl)-propionamide] | 10% | 4% | 36% | 15% | 0% | 50%
N[C@H](Cc1ccccc1)C(=O)Nc1nc2ccc(OC(F)(F)F)cc2s1 [Cpd 4, (R)-2-Amino-3-phenyl-N-(6-trifluoromethoxy-benzothiazol-2-yl)-propionamide] | 12% | 18% | 47% | 6% | 3% | 0%
N[C@H](COCc1ccccc1)C(=O)Nc1nc2ccc(OC(F)(F)F)cc2s1 [Cpd 5, (R)-2-Amino-3-benzyloxy-N-(6-trifluoromethoxy-benzothiazol-2-yl)-propionamide] | 24% | 0% | 25% | 3% | – | –
C[C@H](N)C(=O)Nc1nc2ccc(OC(F)(F)F)cc2s1 [Cpd 7, (S)-2-Amino-N-(6-trifluoromethoxy-benzothiazol-2-yl)-propionamide] | 1% | 0% | 28% | 10% | 0% | 50%
N[C@@H](Cc1ccccc1)C(=O)Nc1nc2ccc(OC(F)(F)F)cc2s1 [Cpd 9, (S)-2-Amino-3-phenyl-N-(6-trifluoromethoxy-benzothiazol-2-yl)-propionamide] | 2% | 0% | 0% | 7% | – | –
N[C@@H](COCc1ccccc1)C(=O)Nc1nc2ccc(OC(F)(F)F)cc2s1 [Cpd 10, (S)-2-Amino-3-benzyloxy-N-(6-trifluoromethoxy-benzothiazol-2-yl)-propionamide] | 0% | 15% | 52% | 9% | 0% | 0%
CC(C)[C@H](N)C(=O)Nc1nc2ccc(OC(F)(F)F)cc2s1 [Cpd 11, (S)-2-Amino-3-methyl-N-(6-trifluoromethoxy-benzothiazol-2-yl)-butyramide] | 40% | 6% | 45% | 11% | 0% | 40%
COC(=O)Nc1nc2ccc(OC(F)(F)F)cc2s1 [Cpd 12, (6-Trifluoromethoxy-benzothiazol-2-yl)-carbamic acid methyl ester] | 10% | 0% | 0% | 15% | 0% | 0%
